In US10124004B2, “Pyrido[3,4-d]pyrimidine derivative and pharmaceutically acceptable salt thereof” (Teijin Pharma Limited, priority 2015, dated 2018):

Legend:
CDK4/cyclin D3 = target: T1, CDK4/cyclin D3 (Homo sapiens, UniProt P11802); assay: Human CDK4/cyclin D3 inhibitory activity (QS S Assist CDK4/Cyclin D3_FP Kit, IMAP fluorescence polarization); format: biochemical; details: 50% inhibitory concentration against CDK4/cyclin D3, given as class symbol
T1 construct: purchased Carna Biosciences, Inc. QS S Assist CDK4/Cyclin D3_FP Kit
Method in brief: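 IMAP fluorescence polarization kit: CDK4/cyclin D3 at 12.5-25 ng/well with kit ATP/substrate/metal mix in 20 mM HEPES pH 7.4, 0.01% Tween20, 2 mM DTT, 45 min at room temperature. FP read at 485/535 nm after 30 min binding; IC50 from dose-response fit of percent inhibition versus enzyme and no-enzyme controls.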

CDK2/cyclin A2 = target: T2, CDK2/cyclin A2 (Homo sapiens, UniProt P24941); assay: Human CDK2/cyclin A2 inhibitory activity (QS S Assist CDK2/Cyclin A2_FP Kit, IMAP fluorescence polarization); format: biochemical; details: 50% inhibitory concentration against CDK2/cyclin A2, given as class symbol
T2 construct: purchased Carna Biosciences, Inc. QS S Assist CDK2/Cyclin A2_FP Kit
Method in brief: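 Kinase activity read as fluorescence polarization (485/535 nm) after phosphorylated fluorescent substrate binds IMAP reagent (30 min, RT, dark). Enzyme (2.5 ng/well) reacted 60 min at RT with ATP/substrate/metal in HEPES pH 7.4 buffer with Tween 20 and DTT; no-enzyme wells define 0% activity; IC50 by curve fit.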

T1 sequence (P11802 whole entry): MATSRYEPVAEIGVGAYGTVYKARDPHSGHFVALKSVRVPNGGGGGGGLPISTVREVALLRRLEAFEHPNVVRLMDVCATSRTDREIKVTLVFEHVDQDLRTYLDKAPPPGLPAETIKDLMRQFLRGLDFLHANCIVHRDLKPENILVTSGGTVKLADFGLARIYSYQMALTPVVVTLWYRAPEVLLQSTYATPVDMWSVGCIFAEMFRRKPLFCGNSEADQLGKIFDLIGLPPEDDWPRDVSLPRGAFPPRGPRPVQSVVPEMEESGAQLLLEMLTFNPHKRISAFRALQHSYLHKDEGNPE
T1 sequence (P30281 whole entry partner): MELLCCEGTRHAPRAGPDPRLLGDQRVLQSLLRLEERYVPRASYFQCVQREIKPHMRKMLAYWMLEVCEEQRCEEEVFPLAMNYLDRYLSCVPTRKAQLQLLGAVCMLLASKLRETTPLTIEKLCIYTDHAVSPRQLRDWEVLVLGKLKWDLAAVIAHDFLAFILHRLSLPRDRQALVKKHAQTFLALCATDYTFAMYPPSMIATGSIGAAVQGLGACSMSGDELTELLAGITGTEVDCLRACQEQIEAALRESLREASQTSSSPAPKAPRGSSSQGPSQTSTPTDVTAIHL

IC50 (CDK4/cyclin D3) [nM] | IC50 (CDK2/cyclin A2) [nM] | Structure (SMILES)
< 10 | ≥ 100 | CC(C)Nc1nc([C@@H](C)O)cc2cnc(Nc3ccc(N4CCN(C[C@H](C)O)CCC4=O)cn3)nc12 [Compound 720]
< 10 | ≥ 100 | CC(C)Nc1nc([C@@H](C)O)cc2cnc(Nc3ccc(N4CCN(C[C@@H](C)O)CCC4=O)cn3)nc12 [Compound 721]
< 10 | ≥ 100 | CC(C)Nc1nc([C@@H](C)O)cc2cnc(Nc3ccc(N4CCC(NC(C)C)CC4)nn3)nc12 [Compound 722]
< 10 | ≥ 100 | CC(C)Nc1nc([C@@H](C)O)cc2cnc(Nc3ccc(N4CCN=CC4=O)cn3)nc12 [Compound 731]
< 10 | ≥ 100 | CC(C)Nc1nc([C@@H](C)O)cc2cnc(Nc3ccc(N4CCNC(C(C)C)C4=O)cn3)nc12 (stereo partly drawn) [Compound 732]
10 to 100 | ≥ 100 | CC(C)Nc1nc([C@@H](C)O)cc2cnc(Nc3ccc(N4CCNC5(CC5)C4=O)cn3)nc12 [Compound 733]
< 10 | ≥ 100 | CN[C@H]1CC[C@@H](Oc2ccc(Nc3ncc4cc([C@@H](C)O)nc(NC(C)C)c4n3)nc2)CC1 [Compound 738]
< 10 | ≥ 100 | CNC1CCCC1Oc1ccc(Nc2ncc3cc(C(C)O)nc(NC(C)C)c3n2)nc1 (stereo not drawn) [Compound 739]
< 10 | ≥ 100 | CC(C)Nc1nc([C@@H](C)O)cc2cnc(Nc3ccc(O[C@H]4CC[C@H](N(C)C)CC4)cn3)nc12 [Compound 740]
< 10 | ≥ 100 | CC(C)Nc1nc([C@@H](C)O)cc2cnc(Nc3ccc(O[C@H]4CC[C@@H](N(C)C)CC4)cn3)nc12 [Compound 741]
< 10 | ≥ 100 | CC(C)Nc1nc(C(C)O)cc2cnc(Nc3ccc(OC4CCCC4N(C)C)cn3)nc12 (stereo not drawn) [Compound 742]
< 10 | ≥ 100 | CC(=O)c1cc2cnc(Nc3ccc(N4CCNCC4=O)cn3)nc2c(NC(C)C)n1 [Compound 743]
< 10 | ≥ 100 | CC(C)Sc1nc([C@@H](C)O)cc2cnc(Nc3ccc(N4CCNCC4=O)cn3)nc12 [Compound 744]
< 10 | ≥ 100 | CC(C)Nc1nc([C@@H](C)O)c(Cl)c2cnc(Nc3ccc(N4CCCNCC4=O)cn3)nc12 [Compound 750]
10 to 100 | ≥ 100 | COC[C@H](C)Nc1nc([C@@H](C)O)cc2cnc(Nc3ccc(N4CCNCC4=O)cn3)nc12 [Compound 752]
< 10 | ≥ 100 | CC(C)Nc1nc(C2CCOC2)cc2cnc(Nc3ccc(N4CCNCC4=O)cn3)nc12 (stereo not drawn) [Compound 763]
< 10 | ≥ 100 | CC(C)Nc1nc([C@@H](C)O)cc2cnc(Nc3ccc(N4CCNCC4C(F)(F)F)cn3)nc12 (stereo partly drawn) [Compound 764]
< 10 | ≥ 100 | CC(C)Nc1nc([C@@H](C)O)cc2cnc(Nc3ccc(N4CCN[C@@H](C(C)C)C4=O)cn3)nc12 [Compound 765]
10 to 100 | ≥ 100 | CC(C)Nc1nc([C@@H](C)O)cc2cnc(Nc3ccc(N4CCN[C@H](C(C)C)C4=O)cn3)nc12 [Compound 766]
< 10 | ≥ 100 | CC(C)Nc1nc([C@@H](C)O)cc2cnc(Nc3ccc(NC(=O)C4CCNCC4)cn3)nc12 [Compound 768]
< 10 | ≥ 100 | CC(C)Nc1nc([C@@H](C)O)cc2cnc(Nc3ccc(NC(=O)C4CCCNC4)cn3)nc12 (stereo partly drawn) [Compound 769]
10 to 100 | ≥ 100 | CC(C)Nc1nc([C@@H](C)O)cc2cnc(Nc3ccc(CN4CCC(C(=O)O)CC4)cn3)nc12 [Compound 770]
< 10 | ≥ 100 | C[C@@H](O)c1cc2cnc(Nc3ccc(N4CCNCC4=O)cn3)nc2c(NC23CC(C2)C3)n1 [Compound 771]
< 10 | ≥ 100 | CC(C)Nc1nc([C@@H](C)O)cc2cnc(Nc3ccc(O[C@@H]4CCC[C@H]4N)cn3)nc12 [Compound 772]
< 10 | ≥ 100 | CC(C)Nc1nc([C@@H](C)O)cc2cnc(Nc3ccc(N4CCNC(C(F)(F)F)C4)cn3)nc12 (stereo partly drawn) [Compound 777]
10 to 100 | ≥ 100 | Cc1cc(Nc2ncc3cc([C@@H](C)O)nc(NC(C)C)c3n2)ncc1N1CCNCC1=O [Compound 780]
< 10 | ≥ 100 | CC(C)Nc1nc([C@@H](C)O)cc2cnc(Nc3ccc(N4CCC5(CCNCC5)C4=O)cn3)nc12 [Compound 784]
< 10 | ≥ 100 | CC(C)Nc1nc([C@@H](C)O)cc2cnc(Nc3ccc(NC(=O)C4CCCCN4)cn3)nc12 (stereo partly drawn) [Compound 788]

Further lines, the molecule ahead of its results:

Structure (SMILES) | IC50 (CDK4/cyclin D3) [nM] | IC50 (CDK2/cyclin A2) [nM]
C[C@@H](O)c1nc(N[C@H]2CCCOC2)c2nc(Nc3ccc(OCCN(C)C)cn3)ncc2c1Cl [Compound 719] | < 10 | ≥ 100
CC(C)Nc1nc([C@@H](C)O)cc2cnc(Nc3ccc(N4CCC(O)C5(CC5)C4)nn3)nc12 (stereo partly drawn) [Compound 723] | < 10 | ≥ 100
CO[C@H](C)c1cc2cnc(Nc3ccc(N4CCNCC4)nn3)nc2c(NC2CCC(C)(C)CC2)n1 [Compound 726] | < 10 | ≥ 100
CO[C@H](C)c1cc2cnc(Nc3ccc(N4CCNCC4)nn3)nc2c(NC2CCC(C)(C)OC2)n1 (stereo partly drawn) [Compound 727] | < 10 | ≥ 100
CO[C@H](C)c1cc2cnc(Nc3ccc(N4CCNCC4)nn3)nc2c(SC(C)C)n1 [Compound 728] | < 10 | ≥ 100
CC(=O)c1cc2cnc(Nc3ccc(OCCN(C)C)cn3)nc2c(NC(C)C)n1 [Compound 734] | < 10 | ≥ 100
CN[C@H]1CC[C@H](Oc2ccc(Nc3ncc4cc([C@@H](C)O)nc(NC(C)C)c4n3)nc2)CC1 [Compound 737] | < 10 | ≥ 100
CC(=O)N1CCN(c2ccc(Nc3ncc4cc([C@@H](C)O)nc(NC(C)C)c4n3)nn2)CC1 [Compound 745] | < 10 | ≥ 100
CC(C)Nc1nc([C@@H](C)O)cc2cnc(Nc3ccc(N4CCN(C(=O)C(C)C)CC4)nn3)nc12 [Compound 746] | < 10 | ≥ 100
CO[C@H](C)c1cc2cnc(Nc3ccc(N4CCN(C(=O)C(C)C)CC4)nn3)nc2c(NC(C)C)n1 [Compound 747] | 10 to 100 | ≥ 100
CO[C@H](C)c1cc2cnc(Nc3ccc(N4CCN(C(=O)OC(C)C)CC4)nn3)nc2c(NC(C)C)n1 [Compound 748] | 10 to 100 | ≥ 100
C[C@@H](O)c1nc(N[C@H]2CCCOC2)c2nc(Nc3ccc(N4CCNCC4=O)cn3)ncc2c1Cl [Compound 751] | < 10 | ≥ 100
CC(C)Nc1nc([C@@H](C)O)c(Cl)c2cnc(Nc3ccc(N4CCC(O)CC4)nn3)nc12 [Compound 753] | < 10 | ≥ 100
COC[C@H](C)Nc1nc([C@@H](C)O)cc2cnc(Nc3ccc(OCCN(C)C)cn3)nc12 [Compound 754] | 10 to 100 | ≥ 100
CNCCOc1ccc(Nc2ncc3c(Cl)c([C@@H](C)O)nc(N[C@H]4CCCOC4)c3n2)nc1 [Compound 755] | < 10 | ≥ 100
COC[C@H](C)Nc1nc([C@@H](C)O)c(Cl)c2cnc(Nc3ccc(N4CCNCC4=O)cn3)nc12 [Compound 756] | 10 to 100 | ≥ 100
CNCCOc1ccc(Nc2ncc3cc([C@@H](C)O)nc(N[C@@H](C)COC)c3n2)nc1 [Compound 757] | < 10 | ≥ 100
CNCCOc1ccc(Nc2ncc3c(Cl)c([C@@H](C)O)nc(N[C@@H](C)COC)c3n2)nc1 [Compound 758] | 10 to 100 | ≥ 100
COC[C@H](C)Nc1nc([C@@H](C)O)c(Cl)c2cnc(Nc3ccc(N4CCC(O)CC4)nn3)nc12 [Compound 759] | 10 to 100 | ≥ 100
COC[C@H](C)Nc1nc([C@@H](C)O)cc2cnc(Nc3ccc(N4CCC(O)CC4)nn3)nc12 [Compound 760] | 10 to 100 | ≥ 100
COC1CCN(c2ccc(Nc3ncc4cc([C@@H](C)O)nc(NC(C)C)c4n3)nn2)CC1 [Compound 761] | < 10 | ≥ 100
COC1CCN(c2ccc(Nc3ncc4cc([C@@H](C)O)nc(N[C@H]5CCCOC5)c4n3)nn2)CC1 [Compound 762] | < 10 | ≥ 100
CC(C)Nc1nc([C@@H](C)O)cc2cnc(Nc3ccc(N4CCN(C(=O)OC(C)C)CC4)nn3)nc12 [Compound 767] | < 10 | ≥ 100
CC(CN(C)C)Oc1ccc(Nc2ncc3cc([C@@H](C)O)nc(N[C@H]4CCCOC4)c3n2)nc1 (stereo partly drawn) [Compound 781] | < 10 | ≥ 100
C[C@@H](O)c1cc2cnc(Nc3ccc(OC[C@@H]4CCCN4)cn3)nc2c(N[C@H]2CCCOC2)n1 [Compound 782] | < 10 | ≥ 100
C[C@@H](O)c1cc2cnc(Nc3ccc(OC[C@H]4CCCN4)cn3)nc2c(N[C@H]2CCCOC2)n1 [Compound 783] | < 10 | ≥ 100
COC[C@@H](C)Nc1nc([C@@H](C)O)cc2cnc(Nc3ccc(OCCN(C)C)cn3)nc12 [Compound 785] | < 10 | ≥ 100
C[C@@H](O)c1cc2cnc(Nc3ccc(O[C@H]4CC[C@H](N(C)C)CC4)cn3)nc2c(N[C@H]2CCCOC2)n1 [Compound 786] | < 10 | ≥ 100
C[C@@H](O)c1cc2cnc(Nc3ccc(O[C@H]4CC[C@@H](N(C)C)CC4)cn3)nc2c(N[C@H]2CCCOC2)n1 [Compound 787] | < 10 | ≥ 100
